Results: US20260284011A1, “COMPOUNDS FOR RESTORING SUSCEPTIBILITY TO BETA-LACTAM ANTIBIOTICS” (UNIVERSITY OF NOTRE DAME DU LAC, priority 2023, published 2026)
Where two headings read alike, the source gives them in different places.

What was measured:
Test in all cases: MIC determination and potentiation assay (microdilution broth)
[1] = tested on: LIM2 (NRS36), MRSA, SCCmec I, bla +; format: cell-based, Staphylococcus aureus; conditions: for MIC: Staphylococcus aureus
Method: (§1) MICs were determined by the microdilution broth method following the Clinical & Laboratory Standards Institute (CLSI) guidelines. […] Experiments were performed in triplicate in 96-well plates with 5×10^5 CFU·mL^−1 of bacteria. […] The MIC was the concentration for which bacterial growth was not observed.

[2] = tested on: HIP07920 (NRS21), MRSA/VISA, SCCmec IV, bla +; format: cell-based, Staphylococcus aureus; conditions: for MIC: Staphylococcus aureus, agent alone
Method: as §1

[3] = tested on: COL (NRS100), MRSA, SCCmec I, bla −; format: cell-based, Staphylococcus aureus; conditions: for MIC: Staphylococcus aureus
Method: as §1

[4] = tested on: JE2, MRSA, SCCmec IV, bla −; format: cell-based, Staphylococcus aureus; conditions: for MIC: Staphylococcus aureus, MRSA, agent alone
Method: as §1

[5] = tested on: ATCC 29213, MSSA, bla +; format: cell-based, Staphylococcus aureus; conditions: for MIC: Staphylococcus aureus
Method: as §1

[6] = tested on: NTCT 8325 (NRS77), MSSA, bla −; format: cell-based, Staphylococcus aureus; conditions: for MIC: Staphylococcus aureus
Method: as §1

[7] = tested on: HIP15178 (VRS5), MRSA/VRSA, SCCmec II, bla +; format: cell-based, Staphylococcus aureus; conditions: for MIC: Staphylococcus aureus
Method: as §1

[8] = tested on: HIP 133170 (VRS3a), MRSA/VRSA, SCCmec IV, bla +; format: cell-based, Staphylococcus aureus; conditions: for MIC: Staphylococcus aureus
Method: as §1

[9] = tested on: USA300-0114 (NRS384), MRSA, SCCmec IV, bla +; format: cell-based; conditions: Staphylococcus aureus
Method: as §1

[10] = tested on: HT 20020320 (NRS245), MRSA, SCCmec IV, bla +; format: cell-based; conditions: Staphylococcus aureus
Method: as §1

[11] = tested on: MN-082 (NRS701), MRSA, SCCmec II, bla +; format: cell-based; conditions: Staphylococcus aureus
Method: as §1

[12] = tested on: FPR3757, MRSA, USA300 clone, SCCmec IV, bla +; format: cell-based; conditions: Staphylococcus aureus
Method: as §1

[13] = tested on: 880, MRSA, SCCmec IV, bla +; format: cell-based
Method: as §1

[14] = tested on: CM05, MRSA, SCCmec I, bla +; format: cell-based; conditions: Staphylococcus aureus
Method: as §1

[15] = tested on: AIS 1000505 (VRS10), MRSA, vancomycin-resistant, SCCmec II, bla +; format: cell-based; conditions: Staphylococcus aureus
Method: as §1

[16] = tested on: 626 (NRS382), MRSA, SCCmec II, bla +; format: cell-based; conditions: Staphylococcus aureus
Method: as §1

[17] = tested on: CO-23 (NRS661), MRSA, SCCmec II, bla +; format: cell-based; conditions: Staphylococcus aureus
Method: as §1

[18] = tested on: CO-34 (NRS662), MRSA, SCCmec IV, bla +; format: cell-based; conditions: Staphylococcus aureus
Method: as §1

[19] = tested on: NY-315 (NRS715), MRSA, SCCmec II, bla +; format: cell-based; conditions: Staphylococcus aureus
Method: as §1

[20] = tested on: CT-19 (NRS676), MRSA, SCCmec IV, bla +; format: cell-based; conditions: Staphylococcus aureus
Method: as §1

[21] = tested on: NRS128, MSSA, bla +; format: cell-based; conditions: Staphylococcus aureus
Method: as §1

[22] = tested on: CA-127 (NRS643), MRSA, SCCmec IV, bla +; format: cell-based; conditions: Staphylococcus aureus
Method: as §1

[23] = tested on: HI049, MRSA, USA300 clone, SCCmec IV, bla +; format: cell-based; conditions: Staphylococcus aureus, agent alone
Method: as §1

[24] = tested on: HIP06297 (NRS17), MRSA, SCCmec II, bla +; format: cell-based; conditions: Staphylococcus aureus
Method: as §1

[25] = tested on: N315 (NRS70), MRSA, SCCmec II, bla +; format: cell-based; conditions: Staphylococcus aureus; N315 (NRS70); agent alone; read-out: MIC
Method: as §1

[26] = tested on: ATCC 33591, MRSA, SCCmec III, bla +; format: cell-based; conditions: Staphylococcus aureus
Method: as §1

[27] = LIM2 (NRS36), agent alone, read-out: MIC
[28] = COL (NRS100), agent alone, read-out: MIC
[29] = MSSA strain ATCC29213, 4 at 8 mg·L^−1
[30] = ATCC 29213, agent alone, read-out: MIC
[31] = NTCT 8325 (NRS77), agent alone, read-out: MIC
[32] = strain NTCT8325, 4 at 8 mg·L^−1
[33] = HIP15178 (VRS5), agent alone, read-out: MIC
[34] = HIP 133170 (VRS3a), agent alone, read-out: MIC
[35] = USA300-0114 (NRS384), agent alone, read-out: MIC
[36] = HT 20020320 (NRS245), agent alone, read-out: MIC
[37] = MN-082 (NRS701), agent alone, read-out: MIC
[38] = FPR3757, agent alone, read-out: MIC
[39] = Staphylococcus aureus, 880, agent alone, read-out: MIC
[40] = AIS 1000505 (VRS10), agent alone, read-out: MIC
[41] = 626 (NRS382), agent alone, read-out: MIC
[42] = CO-23 (NRS661), agent alone, read-out: MIC
[43] = CO-34 (NRS662), agent alone, read-out: MIC
[44] = NY-315 (NRS715), agent alone, read-out: MIC
[45] = CT-19 (NRS676), agent alone, read-out: MIC
[46] = NRS128, agent alone, read-out: MIC
[47] = CA-127 (NRS643), agent alone, read-out: MIC
[48] = HIP06297 (NRS17), agent alone, read-out: MIC
[49] = ATCC 33591, agent alone, read-out: MIC

N#Cc1ccc2nc(SCB(O)O)n(Cc3ccc(C(F)(F)F)cc3C(F)(F)F)c2c1 [Compound 4, (((1-(2,4-bis(trifluoro-methyl)benzyl)-6-cyano-1H-benzo[d]imidazol-2-yl)thio)methyl)boronic acid]
512 fold: fold lowering of MEM MIC by 4 ([1]; strain NRS36, 4 at 8 mg·L^−1)
no effect: effect of 4 on the OXA MIC [6, 32]
2048 fold: fold lowering of FOX MIC by 4 ([2]; strain NRS21, 4 at 4 mg·L^−1)
16 µg/mL: MIC [1, 27] | MIC [4] | MIC [5, 30] | MIC [6, 31] | MIC [8, 34] | MIC [9, 35] | MIC [10, 36] | MIC [11, 37] | MIC [12, 38] | MIC [13, 39] | MIC [15, 40] | MIC [16, 41] | MIC [18, 43] | MIC [19, 44] | MIC [20, 45] | MIC [21, 46] | MIC [22, 47] | MIC [23] | MIC [25] | MIC [26, 49]
16 fold: fold lowering of MEM MIC by 4 ([3]; COL, 4 at 8 mg·L^−1)
32 µg/mL: MIC [3, 28] | MIC [7, 33] | MIC [14] | MIC [17, 42] | MIC [24, 48]
4 fold: fold lowering of OXA MIC by 4 [5, 29]
2 fold: fold reduction of OXA MIC by 4 ([3]; COL, 4 at 8 mg·L^−1) | fold reduction of OXA MIC by 4 ([4]; 4 at 8 mg·L^−1) | fold lowering of MEM MIC by 4 [5, 29] | fold lowering of MEM MIC by 4 [6, 32]
64 fold: fold lowering of OXA MIC by 4 ([1]; strain NRS36, 4 at 8 mg·L^−1) | fold lowering of MEM MIC by 4 ([4]; 4 at 8 mg·L^−1) | fold lowering of MEM MIC by 4 ([7]; vancomycin-resistant MRSA, Table 1 entry 13 (VRS5))
256 fold: fold lowering of MEM MIC by 4 ([8]; vancomycin-resistant MRSA, Table 1 entry 19 (VRS3a))
4096 fold: fold reduction of OXA MIC by 4 ([2]; strain NRS21, 4 at 4 mg·L^−1)
8 µg/mL: MIC ([2]; HIP07920 (NRS21))

C[C@@H](O)[C@H]1C(=O)N2C(C(=O)O)=C(S[C@@H]3CN[C@H](C(=O)N(C)C)C3)[C@H](C)[C@H]12 [MEM, meropenem]
8 µg/mL: MIC [1, 27] | MIC ([2]; HIP07920 (NRS21)) | MIC [7, 33] | MIC [10, 36] | MIC [18, 43] | MIC [23]
32 µg/mL: MIC [11, 37] | MIC [15, 40] | MIC [16, 41] | MIC [17, 42] | MIC [19, 44]
16 µg/mL: MIC [3, 28] | MIC [8, 34] | MIC [13, 39] | MIC [25] | MIC [26, 49]
4 µg/mL: MIC [4] | MIC [9, 35] | MIC [12, 38] | MIC [20, 45] | MIC [22, 47] | MIC [24, 48]
0.13 µg/mL: MIC [5, 30] | MIC [6, 31] | MIC [21, 46]
> 32 µg/mL: MIC [14]

Cc1onc(-c2ccccc2)c1C(=O)N[C@@H]1C(=O)N2[C@@H]1SC(C)(C)[C@@H]2C(=O)O [OXA, oxacillin]
0.5 µg/mL: MIC [21]
256 µg/mL: MIC [7] | MIC [8] | MIC ([13]; Staphylococcus aureus) | MIC [15] | MIC [17] | MIC [19] | MIC [20]
64 µg/mL: MIC [1] | MIC [10] | MIC [12] | MIC [18] | MIC [22]
512 µg/mL: MIC [3] | MIC [11] | MIC [14] | MIC [16] | MIC [26]
0.25 µg/mL: MIC [6]
128 µg/mL: MIC [9]
2 µg/mL: MIC [5] | MIC [24]
0.03 µg/mL: MIC of the β-lactam with 4 ([2]; HIP07920 (NRS21), Concentration of 4: 4 mg · L^−1)
